Experimental data from patent publication US10570454B2, “Methods of identifying individuals at increased risk of lung cancer” (Trustees of Boston University, priority 2007, dated 2020).
Entries after “also recorded” stand apart in the source; their conditions may differ.

How the values were obtained:
[1] = test system: dysplastic airway lesions; conditions: cited from earlier work
[2] = test system: PI3K; test: PI3K kinase assay (PIP3 production) in insulin-stimulated HEK293 cells; type: cell-based; conditions: HEK293 (human embryonic kidney cell line), insulin-activated, varying doses
Description: (§1) Insulin was used to activate the PI3K pathway in three different cell lines: (FIG. 5A) BEAS-2B (bronchial airway cell line), (FIG. 5B) BT549 (breast cancer cell line), and (FIG. 5C) HEK293 (human embryonic kidney cell line). The cell lines were then treated with varying doses of myo-inositol and LY-294002. PIP3 levels were measured to quantify the activation levels of the PI3K pathway (y-axis). […] Replication of these experiments produced similar results.
(§2) 80% confluent BEAS-2B, BT549, or HEK293 cells were starved in BEBM, RPMI, or DMEM medium, respectively (Clonetics, GibcoBRL). This media contained either 0.1% added supplements for the BEAS-2B cells or 0.1% fetal bovine serum for BT549 and HEK293 cells for 24 hrs. […] The production of PIP3 was evaluated by autoradiography and quantified by densitometry analysis and scintillation analysis. […]
(§3) A reduction in PI3K activity in patients that responded to myo-inositol with a regression of dysplasia in their airway reinforces the association between elevated PI3K activity levels and the presence of pre-neoplastic airway lesions. […] PI3K activity, as measured by PIP3 levels, was then quantified using a standard kinase assay protocol. For this experiment, three different cell lines were analyzed in replicate: BEAS-2B (airway), BT549 (breast cancer) and HEK293 (embryonic kidney). […]

[3] = test system: PI3K; test: PI3K kinase assay (PIP3 production) in insulin-stimulated BEAS-2B cells; type: cell-based; conditions: BEAS-2B (bronchial airway cell line), insulin-activated, varying doses
Description: as §1, §2, §3

[4] = test system: PI3K pathway; test: GSEA of PI3K gene sets in cytologically normal airway epithelium before versus after myo-inositol treatment; type: in vivo, human
Description: Cytologically normal airway epithelial samples from patients with dysplastic airway lesions at the University of British Columbia were collected before and after 2-3 months of treatment with myo-inositol (n=20, 10 patients with two samples each), as well as six additional samples collected pre-treatment with myo-inositol as part of a dose response study. In that study, bronchial brushing was performed in three separate 6-8th generation bronchial airways using a 1.7 mm diameter bronchial cytology brush (Hobbs Medical, Stafford Springs, Conn.). The brush was retrieved and immediately immersed in RNALater and kept frozen at −80° C. until assayed. Epithelial cell content of representative bronchial brushing samples has been quantitated by cytocentrifugation (ThermoShandon Cytospin, Pittsburgh, Pa.) of the cell pellet and staining with a cytokeratin antibody (Signet, Dedham Mass.). The cells in the bronchial brush contained >90% bronchial epithelial cells. […]
Gene Set Enrichment Analysis was calculated using GSEA v2. […] Genes were ranked using the following linear model (as calculated in R): Y=β0+β1+β2+b+ε Where Y is the expression of a gene, β0 is the intercept, β1 measures lung cancer risk (whether the sample has dysplasia or not), β2 is the cumulative cigarette smoke exposure for each person (pack-years), b is a random effect correcting for batch differences, and ε is the error term. […]

[5] = test system: PI3K; test: PI3K kinase assay (PIP3 production) in insulin-stimulated BT549 cells; type: cell-based; conditions: BT549 (breast cancer cell line), insulin-activated, varying doses
Description: as §1, §2, §3

## O[C@H]1[C@H](O)[C@@H](O)[C@H](O)[C@@H](O)[C@H]1O [myo-inositol]
[1]; oral, 2-3 months, smokers with moderate-severe dysplasia, versus placebo-treated control patients
  rate of dysplastic regression: significantly increase the rate of dysplastic regression
[1]; taken orally
  side effects: very minor side effects
[2]
  PI3K activity, as measured by PIP3 levels: inhibited PI3K activity levels in a dose-dependent manner; also recorded: drop in PIP3 levels
[3]
  PI3K activity, as measured by PIP3 levels: inhibited PI3K activity levels in a dose-dependent manner; also recorded: drop in PIP3 levels
[4]; subjects that did not respond to treatment (n=3, 6 samples)
  change in expression of PI3K gene sets (GSEA), before versus after treatment: no change in the levels of the PI3K gene sets
[4]; subjects who did respond to treatment (n=6, 12 samples), p=0.04, FDR Q=0.177
  change in expression of PI3K gene sets (GSEA), before versus after treatment: increased expression of genes in the PI3K Down gene set
[5]
  PI3K activity, as measured by PIP3 levels: inhibited PI3K activity levels in a dose-dependent manner; also recorded: drop in PIP3 levels
